Test results published in article PMC3264756 (2011).

Target: acetyl-CoA carboxylase (TbACC) (Trypanosoma brucei, UniProt Q57YR7)
Format: biochemical

CC(Oc1ccc(Oc2ncc(C(F)(F)F)cc2Cl)cc1)C(=O)O (stereo not shown) [haloxyfop] was tested, and the EC50 was 67 µM.
